From US6608086B2, “Dihydropyridines and new uses thereof” (Synaptic Pharmaceutical Corporation, priority 1993, dated 2003)
Where a name gives a salt, the structure may show the parent alone. Read-outs that look alike come from different tables or passages of the source.

Key:
[1] = biological target: T1, α1B Human Adrenergic Receptor (Homo sapiens, UniProt P35368); assay: Radioligand binding, [3H]prazosin, cloned human α1B adrenergic receptor
T1 construct: The entire coding region of α1B (1563 bp); expressed in transfected cells
T1 sequence (P35368 1-520): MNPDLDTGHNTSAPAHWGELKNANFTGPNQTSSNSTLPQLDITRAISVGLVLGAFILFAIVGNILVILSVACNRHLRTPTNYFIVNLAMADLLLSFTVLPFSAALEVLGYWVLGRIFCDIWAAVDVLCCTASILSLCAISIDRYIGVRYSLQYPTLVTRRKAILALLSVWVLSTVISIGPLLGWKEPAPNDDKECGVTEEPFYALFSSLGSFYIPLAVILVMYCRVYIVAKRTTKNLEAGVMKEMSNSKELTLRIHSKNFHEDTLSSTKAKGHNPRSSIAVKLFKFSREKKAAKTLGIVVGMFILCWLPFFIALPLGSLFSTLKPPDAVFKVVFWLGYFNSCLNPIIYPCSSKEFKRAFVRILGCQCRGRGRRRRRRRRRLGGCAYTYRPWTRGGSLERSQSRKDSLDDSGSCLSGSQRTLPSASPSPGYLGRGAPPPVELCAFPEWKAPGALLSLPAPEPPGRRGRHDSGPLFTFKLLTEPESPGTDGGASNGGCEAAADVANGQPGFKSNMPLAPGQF
Procedure, shortened: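 Membranes from stably transfected LM(tk−) cells, resuspended in 50 mM Tris-HCl, 1 mM MgCl2, 0.1% ascorbic acid, pH 7.5, were incubated with 0.5 nM [3H]prazosin for 20 min at 37° C. Nonspecific binding defined with 10 μM phentolamine; bound ligand separated by GF/B filtration.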

[2] = pKi alpha-1 1b, cloned human receptor in LM(tk-) cell membranes, SEM and n in lines below
[3] = cloned human receptor in LM(tk-) cell membranes, SEM and n in lines below, read-out: pKi alpha-1 1b (converted)
[4] = pKi alpha-1 1b, cloned human α1B receptor, LM(tk−) cell membranes
[5] = cloned human α1B receptor, LM(tk−) cell membranes, read-out: pKi alpha-1 1b (converted)

CC1=C(C(N)=O)C(c2ccc([N+](=O)[O-])cc2)C(C(=O)NCCN2CCC(c3ccccc3)(c3ccccc3)CC2)=C(C)N1 (stereo not shown) [Example 54, 5-Carboxamide-1,4-dihydro-2,6-dimethyl-4-(4-nitrophenyl)-3-{N-[2-(4,4-diphenylpiperidin-1-yl)ethyl]}carboxamidopyridine hydrochloride hydrate]
Ki [1, 2]: 174 nM

COC(=O)C1=C(C)NC(C)=C(C(=O)NCCCN2CCC(c3ccccc3)(c3ccccc3)CC2)C1c1ccc(C(F)(F)F)cc1 (stereo not shown) [Example 1]
melting point: 228 to 231 °C | Ki [1, 3]: 407 nM

CCC1=C(C(N)=O)C(c2ccc([N+](=O)[O-])cc2)C(C(=O)NCCCN2CCC(C)(c3ccccc3)CC2)=C(CC)N1 (stereo not shown) [Example 106, 5-Carboxamido-2,6-diethyl-1,4-dihydro-3-{N-[3-(4-Methyl-4-phenylpiperidin-1-yl)propyl]}carboxamido-4-(4-nitrophenyl)pyridine hydrochloride hydrate]
Ki [1, 4]: 933 nM

COC(=O)C1=C(C)NC(C)=C(C(=O)NCCCN2CCC(c3ccccc3)(c3ccccc3)CC2)C1c1ccc(Br)cc1 (stereo not shown) [Example 15, 4-(4-Bromophenyl)-1,4-dihydro-3-methoxycarbonyl-2,6-dimethyl-5-(N-(3-(4,4-diphenylpiperidin-1-yl)propyl)carboxamido)pyridine]
melting point: 244 to 247 °C (dec.) | Ki [1, 3]: 166 nM

COC(=O)C1=C(C)NC(C)=C(C(=O)NCCN2CCC(c3ccccc3)(c3ccccc3)CC2)C1c1ccc([N+](=O)[O-])cc1 (stereo not shown) [Example 52, 1,4-Dihydro-3-methoxycarbonyl-2,6-dimethyl-4-(4-nitrophenyl)-5-{N-[2-(4,4-diphenylpiperidin-1-yl)ethyl]}carboxamidopyridine hydrochloride hemihydrate]
Ki [1, 3]: 77.6 nM

CC1=C(C(=O)NCCCN2CCC(c3ccccc3)(c3ccccc3)CC2)C(c2ccc([N+](=O)[O-])cc2)C(C(=O)OCCC#N)=C(C)N1 (stereo not shown) [Example 160]
Ki [1, 4]: 138 nM

COC(=O)C1=C(C)NC(C)=C(C(=O)NCCCN2CCC(c3ccccc3)(c3ccccc3)CC2)C1c1ccc2ccccc2c1 (stereo not shown) [Example 22]
Ki [1, 3]: 138 nM

CCC1=C(C(=O)OCCC#N)C(c2ccc([N+](=O)[O-])cc2)C(C(=O)NCCCN2CCC(c3ccccc3)(c3ccccc3)CC2)=C(COC)N1 (stereo not shown) [Example 135]
Ki [1, 5]: 178 nM

CCC1=C(C(N)=O)C(c2ccc([N+](=O)[O-])cc2)C(C(=O)NCCCN2CCC(c3ccc(OC)cc3)(c3ccc(OC)cc3)CC2)=C(CC)N1 (stereo not shown) [Example 103, 5-Carboxamido-2,6-diethyl-1,4-dihydro-3-{N-[3-(4,4-bis-(4-methoxyphenyl)piperidin-1-yl)propyl]}carboxamido}-4-(4-nitrophenyl)pyridine hydrochloride]
Ki [1, 5]: 182 nM

CC1=C(C#N)C(c2ccc([N+](=O)[O-])cc2)C(C(=O)NCCCN2CCC(c3ccccc3)(c3ccccc3)CC2)=C(C)N1 (stereo not shown) [Example 37]
Ki [1, 3]: 200 nM

COC(=O)C1=C(C)NC(C)=C(C(=O)NCCCN2CCC(c3ccccc3)(c3ccccc3)CC2)C1c1ccc([N+](=O)[O-])c(C)c1 (stereo not shown) [Example 28]
Ki [1, 2]: 240 nM

CCC1=C(C(=O)NCCCN2CCC(c3ccccc3)(c3ccccc3)CC2)C(c2ccc([N+](=O)[O-])cc2)C(C(=O)NC)=C(COCCN=[N+]=[N-])N1 (stereo not shown) [Example 151, 2-((2-Azidoethyl)oxy)methyl-6-ethyl-1,4-dihydro-3-(N-methyl)carboxamido-4-(4-nitro)phenyl-5-(N-(3-(4,4-diphenylpiperidin-1-yl)propyl))carboxamidopyridine]
Ki [1, 4]: 355 nM

CCC1=C(C(N)=O)C(c2ccc([N+](=O)[O-])cc2)C(C(=O)NCCCN2CCC3(CC2)C(=O)NCN3c2ccccc2)=C(CC)N1 (stereo not shown) [Example 105, 5-Carboxamido-2,6-diethyl-1,4-dihydro-4-(4-nitrophenyl)-3-{N-[3-(1-phenyl-4-oxo-1,3,8-triazaspiro[4.3]decan-8-yl)propyl]}carboxamidopyridine hydrochloride hydrate]
Ki [1, 5]: 3160 nM

COC(=O)C1=C(C)N(C)C(C)=C(C(=O)OCCCN2CCC(c3ccccc3)(c3ccccc3)CC2)C1c1ccc([N+](=O)[O-])cc1 (stereo not shown) [Example 92, 1,4-Dihydro-5-methoxycarbonyl-1,2,6-trimethyl-4-(4-nitrophenyl)-3-[3-(4,4-diphenylpiperidin-1-yl)propoxy]carbonylpyridine hydrochloride hydrate]
Ki [1, 5]: 58.9 nM

COc1ccc(C2(c3ccccc3)CCN(CCCNC(=O)C3=C(C)NC(C)=C(C(N)=O)C3c3ccc([N+](=O)[O-])cc3)CC2)cc1 (stereo not shown) [Example 98, 5-Carboxamido-1,4-dihydro-3-{N-[3-(4-(4-methoxyphenyl)-4-phenylpiperidin-1-yl)propyl]}carboxamido-2,6-dimethyl-4-(4-nitrophenyl)pyridine hydrochloride]
Ki [1, 4]: 302 nM

CCC1=C(C(N)=O)C(c2ccc([N+](=O)[O-])cc2)C(C(=O)NCCCN2CCC(C#N)(c3ccccc3)CC2)=C(CC)N1 (racemic) [(±)-102, 5-Carboxamido-3-{N-[(4-cyano-4-phenylpiperidin-1-ly)propyl]carboxamido-2,6-diethyl-1,4-dihydro-4-(4-nitrophenyl)pyridine hydrochloride hydrate]
Ki [1, 4]: 1620 nM

COC(=O)C1=C(C)NC(c2ccccc2)=C(C(=O)NCCCN2CCC(c3ccccc3)(c3ccccc3)CC2)C1c1ccc([N+](=O)[O-])cc1 (stereo not shown) [Example 78, 1,4-Dihydro-5-methoxycarbonyl-6-methyl-4-(4-nitro)phenyl-2-phenyl-3-(N-(3-(4,4-diphenylpiperidin-1-yl)propyl))carboxamidopyridine hydrochloride hydrate]
Ki [1, 3]: 110 nM

CCOC(=O)C1=C(CC(=O)NCCCN2CCC(c3ccccc3)(c3ccccc3)CC2)NC(C)=C(C(=O)OC)C1c1ccc([N+](=O)[O-])cc1 (stereo not shown) [Example 89, 3-Ethoxycarbonyl-1,4-dihydro-5-methoxycarbonyl-6-methyl-4-(4-nitro)phenyl-2-(N-(3-(4,4,-diphenylpiperidin-1-yl)propyl)carboxamido)methylpyridine, fumarate salt]
Ki [1, 5]: 141 nM

COC(=O)C1=C(C)NC(C)=C(C(=O)N(C)CCCN2CCC(c3ccccc3)(c3ccccc3)CC2)C1c1ccc([N+](=O)[O-])cc1 (stereo not shown) [Example 46, hydrochloride hemihydrate]
Ki [1, 3]: 240 nM

CCC1=C(C(=O)NCCCN2CCC(c3ccccc3)(c3ccccc3)CC2)C(c2ccc([N+](=O)[O-])cc2)C(C(=O)OCc2ccccc2)=C(C)N1 (stereo not shown) [Example 4, 5-Benzyloxycarbonyl-2-ethyl-1,4-dihydro-6-methyl-4-(4-nitrophenyl)-3-(N-(3-(4,4-diphenylpiperidin-1-yl)propyl)carboxamido) pyridine, Hydrochloride Salt, Hydrate]
Ki [1, 2]: 129 nM

COC(=O)C1=C(C)NC(c2ccoc2)=C(C(=O)NCCCN2CCC(c3ccccc3)(c3ccccc3)CC2)C1c1ccc([N+](=O)[O-])cc1 (stereo not shown) [Example 43, 2-(Furan-3-yl)-, 4-dihydro-5-methoxycarbonyl-6-methyl-4-(4-nitrophenyl)-3-(N-(3-(4,4-diphenylpiperidin-1-yl)propyl)carboxamidopyridine, hydrochloride salt]
Ki [1, 2]: 182 nM

CCC1=C(C(N)=O)C(c2ccc([N+](=O)[O-])cc2)C(C(=O)NCCCN2CCC(C#N)(c3ccccc3)CC2)=C(CC)N1 (single isomer, unassigned; (-)) [(−)-102]
Ki [1, 4]: 3160 nM

CCC1=C(C(=O)NCCCN2CCC(c3ccccc3)(c3ccccc3)CC2)C(c2ccc(N)cc2)C(C(=O)OC)=C(C)N1 (stereo not shown) [Example 114, 4-(4-Aminophenyl)-2-ethyl-1,4-dihydro-5-methoxycarbonyl-6-methyl-3-(N-(3-(4,4-diphenylpiperidin-1-yl)propyl)carboxamido)-pyridine]
Ki [1, 5]: 204 nM

CCC1=C(C(N)=O)C(c2ccc([N+](=O)[O-])cc2)C(C(=O)NCCCN2CCC(O)(c3ccccc3)CC2)=C(CC)N1 (stereo not shown) [Example 100, 5-Carboxamido-2,6-diethyl-1,4-dihydro-3-{N-(3-(4-hydroxy-4-phenylpiperidin-1-yl)propyl]}carboxamido-4-(4-nitrophenyl)pyridine hydrochloride hydrate]
Ki [1, 4]: 1480 nM

CCC1=C(C(N)=O)C(c2ccc(S(C)(=O)=O)cc2)C(C(=O)NCCCN2CCC(c3ccccc3)(c3ccccc3)CC2)=C(CC)N1 (stereo not shown) [Example 116, 5-Carboxamido-2,6-diethyl-1,4-dihydro-4-(4-methanesulfonylphenyl)-3-(N-(3-(4,4-diphenylpiperidin-1-yl)propyl)carboxamido)-pyridine]
Ki [1, 4]: 759 nM

CCC1=C(C(N)=O)C(c2ccc([N+](=O)[O-])cc2)C(C(=O)NCCCN2CCN(c3ccccc3OC)CC2)=C(CC)N1 (stereo not shown) [Example 125, 5-Carboxamido-2,6-diethyl-1,4-dihydro-3-(N-{3-[4-(2-methoxyphenyl)piperazin-1-yl]propyl})carboxamido-4-(4-nitrophenyl)pyridine]
Ki [1, 5]: 129 nM
